Columns and labels:
BRK(h) = target: T1, BRK(h) (Homo sapiens, UniProt Q13882); experiment: Kinase selectivity panel; type: biochemical; conditions: read-out: Inhibition(%) @ 1 µM RK-019
T1 construct: purchased Eurofins Discovery Services (KinaseProfiler)
Method: (§1) Median-inhibitory concentration (IC50) and inhibition ratio of kinases by RK-019 was assessed by Eurofins Discovery Services (Dundee, United Kingdom) using the ATP-site competition binding assay in vitro. Firstly, gradient concentration of RK-019 against FGFRs, including FGFR1, FGFR2, FGFR3, and FGFR4, were tested. IC50 value was calculate by the GraphPad Prism software (v8.4.3, GraphPad Software, California, United States). Then, to measure the selectivity prolife of RK-019, a panel of 422 recombinant human kinases was screened at a concentration of 1 µM RK-019. Kinase MAP was drawn by webtools from Cell Signaling Technology, Inc. (www.cellsignal.com).

PDGFRα(D842V)(h) = target: T2, PDGFRα(D842V)(h) (Homo sapiens, UniProt P16234, D842V); experiment: Kinase selectivity panel; type: biochemical; conditions: read-out: Inhibition(%) @ 1 µM RK-019
T2 construct: purchased Eurofins Discovery Services (KinaseProfiler)
Method: as §1

Pim-2(h) = target: T3, Pim-2(h) (Homo sapiens, UniProt Q9P1W9); experiment: Kinase selectivity panel; type: biochemical; conditions: read-out: Inhibition(%) @ 1 µM RK-019
T3 construct: purchased Eurofins Discovery Services (KinaseProfiler)
T3 sequence (Q9P1W9 whole entry): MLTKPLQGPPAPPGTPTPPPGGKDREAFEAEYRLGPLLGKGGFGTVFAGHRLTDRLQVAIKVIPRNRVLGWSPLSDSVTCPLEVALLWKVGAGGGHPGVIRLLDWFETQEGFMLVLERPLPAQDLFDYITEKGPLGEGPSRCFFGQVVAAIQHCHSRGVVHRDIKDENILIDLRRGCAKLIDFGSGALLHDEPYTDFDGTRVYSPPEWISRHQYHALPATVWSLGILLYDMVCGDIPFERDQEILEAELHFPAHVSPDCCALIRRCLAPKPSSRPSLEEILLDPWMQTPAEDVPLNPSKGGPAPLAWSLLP
Method: as §1

SIK3(h) = target: T4, SIK3(h) (Homo sapiens, UniProt Q9Y2K2); experiment: Kinase selectivity panel; type: biochemical; conditions: read-out: Inhibition(%) @ 1 µM RK-019
T4 construct: purchased Eurofins Discovery Services (KinaseProfiler)
Method: as §1

ACTR2(h) = target: T5, ACTR2(h) (Homo sapiens, UniProt P27037); experiment: Kinase selectivity panel; type: biochemical; conditions: read-out: Inhibition(%) @ 1 µM RK-019
T5 construct: purchased Eurofins Discovery Services (KinaseProfiler)
Method: as §1

HIPK3(h) = target: T6, HIPK3(h) (Homo sapiens, UniProt Q9H422); experiment: Kinase selectivity panel; type: biochemical; conditions: read-out: Inhibition(%) @ 1 µM RK-019
T6 construct: purchased Eurofins Discovery Services (KinaseProfiler)
T6 sequence (Q9H422 whole entry): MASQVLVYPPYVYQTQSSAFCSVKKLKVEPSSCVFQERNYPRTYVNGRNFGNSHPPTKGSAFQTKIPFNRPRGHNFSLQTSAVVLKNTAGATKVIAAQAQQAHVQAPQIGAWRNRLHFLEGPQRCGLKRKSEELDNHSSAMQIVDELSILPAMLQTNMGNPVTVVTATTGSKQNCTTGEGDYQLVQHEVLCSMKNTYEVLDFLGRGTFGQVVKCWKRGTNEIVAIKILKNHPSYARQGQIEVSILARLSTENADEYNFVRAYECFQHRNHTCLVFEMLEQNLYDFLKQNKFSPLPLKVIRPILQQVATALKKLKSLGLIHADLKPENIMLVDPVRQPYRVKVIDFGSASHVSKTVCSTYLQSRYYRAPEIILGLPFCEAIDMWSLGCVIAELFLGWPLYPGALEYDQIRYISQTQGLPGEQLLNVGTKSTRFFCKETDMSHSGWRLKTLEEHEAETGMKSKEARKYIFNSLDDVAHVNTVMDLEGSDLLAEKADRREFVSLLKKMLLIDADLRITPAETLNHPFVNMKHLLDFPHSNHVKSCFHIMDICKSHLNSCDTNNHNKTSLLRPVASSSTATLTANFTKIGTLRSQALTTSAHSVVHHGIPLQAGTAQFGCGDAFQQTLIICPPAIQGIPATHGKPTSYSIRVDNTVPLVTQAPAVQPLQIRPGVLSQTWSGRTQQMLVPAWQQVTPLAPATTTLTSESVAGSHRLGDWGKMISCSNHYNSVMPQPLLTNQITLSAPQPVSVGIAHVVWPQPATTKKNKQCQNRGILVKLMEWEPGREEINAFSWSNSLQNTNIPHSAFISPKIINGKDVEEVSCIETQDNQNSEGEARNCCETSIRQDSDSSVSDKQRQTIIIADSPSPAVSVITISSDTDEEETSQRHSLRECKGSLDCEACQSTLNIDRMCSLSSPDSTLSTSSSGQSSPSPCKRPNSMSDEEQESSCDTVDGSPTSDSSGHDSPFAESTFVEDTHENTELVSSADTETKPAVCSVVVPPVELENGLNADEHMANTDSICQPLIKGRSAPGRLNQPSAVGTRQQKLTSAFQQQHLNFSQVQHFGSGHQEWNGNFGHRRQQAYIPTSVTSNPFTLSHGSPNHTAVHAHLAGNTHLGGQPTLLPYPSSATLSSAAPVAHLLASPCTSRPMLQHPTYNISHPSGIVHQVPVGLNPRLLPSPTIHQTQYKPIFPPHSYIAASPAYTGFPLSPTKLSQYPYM
Method: as §1

EphB1(h) = target: T7, EphB1(h) (Homo sapiens, UniProt P54762); experiment: Kinase selectivity panel; type: biochemical; conditions: read-out: Inhibition(%) @ 1 µM RK-019
T7 construct: purchased Eurofins Discovery Services (KinaseProfiler)
T7 sequence (P54762 18-984): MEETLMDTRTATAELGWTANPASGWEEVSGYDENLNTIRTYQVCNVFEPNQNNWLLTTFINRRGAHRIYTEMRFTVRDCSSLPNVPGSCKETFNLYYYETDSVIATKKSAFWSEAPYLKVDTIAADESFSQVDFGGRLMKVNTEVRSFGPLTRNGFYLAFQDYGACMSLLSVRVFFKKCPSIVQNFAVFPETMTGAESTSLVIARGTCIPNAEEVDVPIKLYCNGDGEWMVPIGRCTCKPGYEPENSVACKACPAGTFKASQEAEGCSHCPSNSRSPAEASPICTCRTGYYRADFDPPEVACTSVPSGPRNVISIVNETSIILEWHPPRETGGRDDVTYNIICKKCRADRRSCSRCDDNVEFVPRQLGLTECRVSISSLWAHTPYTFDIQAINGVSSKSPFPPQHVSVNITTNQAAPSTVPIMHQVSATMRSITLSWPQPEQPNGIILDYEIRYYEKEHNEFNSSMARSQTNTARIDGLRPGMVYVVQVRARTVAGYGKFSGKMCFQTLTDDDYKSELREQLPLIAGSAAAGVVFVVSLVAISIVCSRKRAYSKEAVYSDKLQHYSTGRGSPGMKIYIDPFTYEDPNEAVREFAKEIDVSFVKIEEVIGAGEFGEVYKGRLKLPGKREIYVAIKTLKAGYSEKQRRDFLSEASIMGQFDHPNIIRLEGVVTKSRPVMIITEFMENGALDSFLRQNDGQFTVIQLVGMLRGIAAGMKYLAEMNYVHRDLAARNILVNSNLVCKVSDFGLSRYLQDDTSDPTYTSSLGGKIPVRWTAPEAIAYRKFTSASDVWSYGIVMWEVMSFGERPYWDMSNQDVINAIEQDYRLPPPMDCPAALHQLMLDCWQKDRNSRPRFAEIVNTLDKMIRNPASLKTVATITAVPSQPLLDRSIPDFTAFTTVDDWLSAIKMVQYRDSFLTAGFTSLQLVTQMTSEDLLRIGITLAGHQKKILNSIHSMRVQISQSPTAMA
Method: as §1

EphB4(h) = target: T8, EphB4(h) (Homo sapiens, UniProt P54760); experiment: Kinase selectivity panel; type: biochemical; conditions: read-out: Inhibition(%) @ 1 µM RK-019
T8 construct: purchased Eurofins Discovery Services (KinaseProfiler)
T8 sequence (P54760 16-987): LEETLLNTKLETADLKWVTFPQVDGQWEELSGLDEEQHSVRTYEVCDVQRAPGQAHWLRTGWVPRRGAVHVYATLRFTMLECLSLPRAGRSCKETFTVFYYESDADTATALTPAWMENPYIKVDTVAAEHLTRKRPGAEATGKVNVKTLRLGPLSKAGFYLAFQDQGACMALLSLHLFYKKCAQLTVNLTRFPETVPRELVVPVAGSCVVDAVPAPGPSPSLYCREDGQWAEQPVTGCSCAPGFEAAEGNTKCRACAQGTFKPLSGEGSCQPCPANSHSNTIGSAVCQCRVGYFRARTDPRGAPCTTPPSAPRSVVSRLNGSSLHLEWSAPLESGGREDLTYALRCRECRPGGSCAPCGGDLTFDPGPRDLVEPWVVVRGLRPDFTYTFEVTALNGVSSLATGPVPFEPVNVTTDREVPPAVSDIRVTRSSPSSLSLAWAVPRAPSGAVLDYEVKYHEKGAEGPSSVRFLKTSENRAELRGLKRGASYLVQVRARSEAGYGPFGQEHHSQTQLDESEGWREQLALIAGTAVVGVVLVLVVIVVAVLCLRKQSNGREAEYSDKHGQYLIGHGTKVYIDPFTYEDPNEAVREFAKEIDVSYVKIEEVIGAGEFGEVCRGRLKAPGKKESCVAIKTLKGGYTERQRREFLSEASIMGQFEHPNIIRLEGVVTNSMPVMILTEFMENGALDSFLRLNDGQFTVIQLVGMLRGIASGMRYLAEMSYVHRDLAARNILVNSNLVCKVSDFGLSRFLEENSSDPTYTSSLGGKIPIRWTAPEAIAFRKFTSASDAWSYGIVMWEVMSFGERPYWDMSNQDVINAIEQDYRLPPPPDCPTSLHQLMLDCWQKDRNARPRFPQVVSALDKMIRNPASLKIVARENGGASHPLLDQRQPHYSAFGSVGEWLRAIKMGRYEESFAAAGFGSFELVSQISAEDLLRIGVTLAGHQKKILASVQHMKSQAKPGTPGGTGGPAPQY
Method: as §1

PKA(h) = target: T9, PKA(h) (Homo sapiens, UniProt P17612); experiment: Kinase selectivity panel; type: biochemical; conditions: read-out: Inhibition(%) @ 1 µM RK-019
T9 construct: purchased Eurofins Discovery Services (KinaseProfiler)
Method: as §1

PKCι(h) = target: T10, PKCι(h) (Homo sapiens, UniProt P41743); experiment: Kinase selectivity panel; type: biochemical; conditions: read-out: Inhibition(%) @ 1 µM RK-019
T10 construct: purchased Eurofins Discovery Services (KinaseProfiler)
Method: as §1

Mnk2(h) = target: T11, Mnk2(h) (Homo sapiens, UniProt Q9HBH9); experiment: Kinase selectivity panel; type: biochemical; conditions: read-out: Inhibition(%) @ 1 µM RK-019
T11 construct: purchased Eurofins Discovery Services (KinaseProfiler)
Method: as §1

PKD2(h) = target: T12, PKD2(h) (Homo sapiens, UniProt Q9BZL6); experiment: Kinase selectivity panel; type: biochemical; conditions: read-out: Inhibition(%) @ 1 µM RK-019
T12 construct: purchased Eurofins Discovery Services (KinaseProfiler)
Method: as §1

LIMK1(h) = target: T13, LIMK1(h) (Homo sapiens, UniProt P53667); experiment: Kinase selectivity panel; type: biochemical; conditions: read-out: Inhibition(%) @ 1 µM RK-019
T13 construct: purchased Eurofins Discovery Services (KinaseProfiler)
Method: as §1

Bmx(h) = target: T14, Bmx(h) (Homo sapiens, UniProt P51813); experiment: Kinase selectivity panel; type: biochemical; conditions: read-out: Inhibition(%) @ 1 µM RK-019
T14 construct: purchased Eurofins Discovery Services (KinaseProfiler)
Method: as §1

SGK(h) = target: T15, SGK(h) (Homo sapiens, UniProt O00141); experiment: Kinase selectivity panel; type: biochemical; conditions: read-out: Inhibition(%) @ 1 µM RK-019
T15 construct: purchased Eurofins Discovery Services (KinaseProfiler)
Method: as §1

CDK5/p25(h) = target: T16, CDK5/p25(h) (Homo sapiens, UniProt Q00535); experiment: Kinase selectivity panel; type: biochemical; conditions: read-out: Inhibition(%) @ 1 µM RK-019
T16 construct: purchased Eurofins Discovery Services (KinaseProfiler)
Method: as §1

PAK4(h) = target: T17, PAK4(h) (Homo sapiens, UniProt O96013); experiment: Kinase selectivity panel; type: biochemical; conditions: read-out: Inhibition(%) @ 1 µM RK-019
T17 construct: purchased Eurofins Discovery Services (KinaseProfiler)
Method: as §1

CK1γ1(h) = target: T18, CK1γ1(h) (Homo sapiens, UniProt Q9HCP0); experiment: Kinase selectivity panel; type: biochemical; conditions: read-out: Inhibition(%) @ 1 µM RK-019
T18 construct: purchased Eurofins Discovery Services (KinaseProfiler)
Method: as §1

NEK2(h) = target: T19, NEK2(h) (Homo sapiens, UniProt P51955); experiment: Kinase selectivity panel; type: biochemical; conditions: read-out: Inhibition(%) @ 1 µM RK-019
T19 construct: purchased Eurofins Discovery Services (KinaseProfiler)
Method: as §1

MEK2(h) = target: T20, MEK2(h) (Homo sapiens, UniProt P36507); experiment: Kinase selectivity panel; type: biochemical; conditions: read-out: Inhibition(%) @ 1 µM RK-019
T20 construct: purchased Eurofins Discovery Services (KinaseProfiler)
T20 sequence (P36507 whole entry): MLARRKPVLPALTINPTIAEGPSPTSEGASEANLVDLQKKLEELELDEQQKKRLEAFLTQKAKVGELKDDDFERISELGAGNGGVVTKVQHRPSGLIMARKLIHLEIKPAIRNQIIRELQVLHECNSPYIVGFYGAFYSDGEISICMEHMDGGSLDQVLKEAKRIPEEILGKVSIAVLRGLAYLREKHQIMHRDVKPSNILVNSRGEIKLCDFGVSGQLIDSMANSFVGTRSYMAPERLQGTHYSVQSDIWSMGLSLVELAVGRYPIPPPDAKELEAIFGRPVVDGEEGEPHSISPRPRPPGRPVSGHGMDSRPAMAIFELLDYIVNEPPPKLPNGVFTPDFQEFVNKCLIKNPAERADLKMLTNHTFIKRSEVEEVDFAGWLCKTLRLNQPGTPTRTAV
Method: as §1

PDK1(h) = target: T21, PDK1(h) (Homo sapiens, UniProt O15530); experiment: Kinase selectivity panel; type: biochemical; conditions: read-out: Inhibition(%) @ 1 µM RK-019
T21 construct: purchased Eurofins Discovery Services (KinaseProfiler)
Method: as §1

MuSK(h) = target: T22, MuSK(h) (Homo sapiens, UniProt O15146); experiment: Kinase selectivity panel; type: biochemical; conditions: read-out: Inhibition(%) @ 1 µM RK-019
T22 construct: purchased Eurofins Discovery Services (KinaseProfiler)
Method: as §1

AMPKα1(h) = target: T23, AMPKα1(h) (Homo sapiens, UniProt Q13131); experiment: Kinase selectivity panel; type: biochemical; conditions: read-out: Inhibition(%) @ 1 µM RK-019
T23 construct: purchased Eurofins Discovery Services (KinaseProfiler)
T23 sequence (Q13131 whole entry): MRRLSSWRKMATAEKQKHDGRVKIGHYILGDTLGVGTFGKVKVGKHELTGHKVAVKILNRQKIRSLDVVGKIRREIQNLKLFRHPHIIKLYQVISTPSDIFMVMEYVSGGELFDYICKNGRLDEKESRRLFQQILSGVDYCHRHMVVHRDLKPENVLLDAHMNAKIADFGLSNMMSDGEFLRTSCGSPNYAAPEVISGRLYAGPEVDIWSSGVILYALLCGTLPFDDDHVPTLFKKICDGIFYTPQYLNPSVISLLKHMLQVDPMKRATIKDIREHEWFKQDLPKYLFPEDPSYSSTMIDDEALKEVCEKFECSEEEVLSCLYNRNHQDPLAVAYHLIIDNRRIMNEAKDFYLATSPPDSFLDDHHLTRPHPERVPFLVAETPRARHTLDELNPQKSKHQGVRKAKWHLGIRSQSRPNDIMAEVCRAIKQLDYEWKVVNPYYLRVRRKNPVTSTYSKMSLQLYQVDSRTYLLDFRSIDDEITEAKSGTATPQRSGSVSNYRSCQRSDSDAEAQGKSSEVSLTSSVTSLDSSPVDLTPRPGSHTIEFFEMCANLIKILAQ
T23 sequence (Q9Y478 whole entry partner): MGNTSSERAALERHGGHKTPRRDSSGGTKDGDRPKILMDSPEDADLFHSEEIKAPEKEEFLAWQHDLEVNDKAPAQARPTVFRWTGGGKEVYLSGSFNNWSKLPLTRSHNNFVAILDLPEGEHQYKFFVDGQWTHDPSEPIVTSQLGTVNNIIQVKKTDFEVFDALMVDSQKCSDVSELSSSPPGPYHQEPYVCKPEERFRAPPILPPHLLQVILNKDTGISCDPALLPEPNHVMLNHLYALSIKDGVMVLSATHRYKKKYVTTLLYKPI
T23 sequence (P54619 whole entry partner): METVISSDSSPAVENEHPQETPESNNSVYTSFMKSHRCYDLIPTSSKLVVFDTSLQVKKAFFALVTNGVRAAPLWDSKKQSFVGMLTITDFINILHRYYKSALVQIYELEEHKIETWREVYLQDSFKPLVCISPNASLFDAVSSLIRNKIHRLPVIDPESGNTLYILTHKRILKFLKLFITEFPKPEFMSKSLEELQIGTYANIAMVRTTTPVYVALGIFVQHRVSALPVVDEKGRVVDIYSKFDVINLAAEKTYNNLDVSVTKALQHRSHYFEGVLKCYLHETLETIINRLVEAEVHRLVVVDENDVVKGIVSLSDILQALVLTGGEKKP
Method: as §1

SNU-16 cells [1] = experiment: Cell counting assay (trypan blue); type: cell-based; conditions: SNU-16, 10 and 100 nM, 9 days
Method: (§2) SNU-16 and KATO III were seeded in 6-well plated with 1×10^5 per well. RK-019 was treated as soon as the cells seeded in the 6-well plates. After indicated time, the images were captured using an inverted microscope. Then, the cells in the captured well were resuspended and live cell numbers were determined by the trypan blue (BL627A, Biosharp, Hefei, China) method.

KATO III cells [2] = experiment: Cell counting assay (trypan blue); type: cell-based; conditions: KATO III, 5, 10, and 100 nM, 9 days
Method: as §2

KATO III cells [3] = experiment: Cell cycle analysis by flow cytometry (PI staining); type: cell-based; conditions: 100 nM, 24 h
Method: Cell cycle and apoptosis assay were both measured by flow cytometry (FCM). The data were analyzed by the NovoExpress software (v1.4.0, Agilent, Santa Clara, CA, United States). For cell cycle assay, the cells were treated by different concentrations of RK-019 for 24 h, then were harvested and washed twice with cold phosphate buffered solution (PBS), followed by fixed with 75% ethanol overnight. Before test, the cells were washed twice with cold PBS and stained with PI stanning solution using cell cycle detecting kit (KGA512, KeyGEN, Nanjing, China), and then measured by FCM. For apoptosis assay, the cells were harvested after treated with different concentrations of RK-019 for 24 h, and stained with a PE Annexin V Apoptosis Detection Kit according to the manufacturer’s protocol followed by detected using FCM.

Rsk1(r) = target: T24, Rsk1(r) (Rattus norvegicus, UniProt Q63531); experiment: Kinase selectivity panel; type: biochemical; conditions: read-out: Inhibition(%) @ 1 µM RK-019
T24 construct: purchased Eurofins Discovery Services (KinaseProfiler)

SNU-16 cells [4] = experiment: Edu staining assay; type: cell-based; conditions: SNU-16, 100 nM, 24 h
Method: (§3) For Edu staining assay, 1×10^5 cells were seeded in 24-well plates. RK-019 and DMSO were treated as soon as the cells seeded into the plates. After 24 h, the cells were incubated with the medium contained 10 µM Edu for 2 h. After that, the cells were collected and fixated to slide, and then stained with the Cell-Light EdU Apollo488 In Vitro Kit (C10310, Ribobio, Guangzhou, China). After staining, the samples were photographed and analyzed by the ImageJ software (v1.53a, Wayne Rasband, United States).

KATO III cells [5] = experiment: Edu staining assay; type: cell-based; conditions: 100 nM, 24 h
Method: as §3

## COc1cc(OC)cc(N(CCN[C@H](C)CO)c2ccc3ncc(-c4cnn(C)c4)c(=O)n3c2)c1 [RK-019, (R)-7-((3,5-dimethoxyphenyl) (2-((1-hydroxypropan-2-yl)amino)ethyl)amino)-3-(1-methyl-1H-pyrazol-4-yl)-4H-pyrido [1,2-a]pyrimidin-4-one]
BRK(h)
  activity at 1 µM: 89%
PDGFRα(D842V)(h)
  activity at 1 µM: 22%
Pim-2(h)
  activity at 1 µM: 98%
SIK3(h)
  activity at 1 µM: 104%
ACTR2(h)
  activity at 1 µM: 85%
HIPK3(h)
  activity at 1 µM: 94%
EphB1(h)
  activity at 1 µM: 58%
EphB4(h)
  activity at 1 µM: 109%
PKA(h)
  activity at 1 µM: 94%
PKCι(h)
  activity at 1 µM: 100%
Mnk2(h)
  activity at 1 µM: 108%
PKD2(h)
  activity at 1 µM: 98%
LIMK1(h)
  activity at 1 µM: 103%
Bmx(h)
  activity at 1 µM: 64%
SGK(h)
  activity at 1 µM: 104%
CDK5/p25(h)
  activity at 1 µM: 112%
PAK4(h)
  activity at 1 µM: 82%
CK1γ1(h)
  activity at 1 µM: 92%
NEK2(h)
  activity at 1 µM: 80%
MEK2(h)
  activity at 1 µM: 85%
PDK1(h)
  activity at 1 µM: 110%
MuSK(h)
  activity at 1 µM: 105%
AMPKα1(h)
  activity at 1 µM: 107%
SNU-16 cells [1]
  live cell numbers, prolonged administration: inhibited
KATO III cells [2]
  live cell numbers, prolonged administration: suppressed
KATO III cells [3]
  G0/G1 proportion: 67.88%
Rsk1(r)
  activity at 1 µM: 96%
SNU-16 cells [4]
  number of Edu-positive stained cells: significantly decreased
KATO III cells [5]
  number of Edu-positive stained cells: significantly decreased

— publication PMC9532703, “A novel small molecule RK-019 inhibits FGFR2-amplification gastric cancer cell proliferation and induces apoptosis in vitro and in vivo” (Frontiers in Pharmacology, 2022)
